US20230173090A1, “COMPOSITIONS AND METHODS FOR MODULATING DOPAMINE RECEPTOR ACTIVITY” (The Regents of the University of California, priority 2020, published 2023)

Columns and labels:
D1R = target: T1, D1R (Homo sapiens, UniProt P21728); experiment: D1R-mediated GIRK channel activation assay in HEK293T cells (whole-cell electrophysiology); format: cell-based; details: % of photocurrent in the absence of LE300
T1 construct: expressed in transfected cells; host or cells: HEK293T (A1, A2); HEK293 (A26)
T1 sequence (P21728 whole entry): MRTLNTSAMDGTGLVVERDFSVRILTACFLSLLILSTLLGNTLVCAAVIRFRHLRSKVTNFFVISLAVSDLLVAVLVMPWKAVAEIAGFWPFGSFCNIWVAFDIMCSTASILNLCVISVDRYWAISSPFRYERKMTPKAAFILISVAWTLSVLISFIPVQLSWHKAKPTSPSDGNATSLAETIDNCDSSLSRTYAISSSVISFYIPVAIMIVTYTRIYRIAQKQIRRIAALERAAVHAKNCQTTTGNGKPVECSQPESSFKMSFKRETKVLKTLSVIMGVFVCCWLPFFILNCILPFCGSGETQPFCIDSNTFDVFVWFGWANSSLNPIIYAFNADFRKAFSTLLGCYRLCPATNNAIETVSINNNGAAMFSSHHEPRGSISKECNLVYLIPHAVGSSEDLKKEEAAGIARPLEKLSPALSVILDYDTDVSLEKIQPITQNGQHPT
Procedure: All constructs were cloned into mammalian expression vectors. For the receptor mediated-GIRK activation assay, HEK293T cells were seeded onto 18 mm coverslips and transiently transfected overnight with Lipofectamine 2000 and the following constructs: a receptor, a variant of the membrane-anchor (M; 0.7 µg), GIRK1(F137S) (0.7 µg), and tdTomato (0.2 µg). […] D1R, D5R, or opto-D1R were cotransfected with Gαis13 (0.35 µg), D3R with GαoA (0.7 µg), and M1R or mGluR1 with Gαiq5. Transfected cells were used for electrophysiology, imaging, or flow cytometry experiments.
HEK293T cells were sparsely seeded and maintained in DMEM (Invitrogen) with 10% fetal bovine serum on poly-L-lysine-coated coverslips at 37° C. and 5% CO2. HEK293T cells were voltage clamped in whole-cell configuration 16-48 hours after transfection. […] GluK2 electrophysiology was performed in the presence of 0.3 mg/mL concanavalin A to prevent desensitization. […] Cells were voltage clamped to -60 or -80 mV using an Axopatch 200A (Molecular Devices) amplifier.
For all experiments, compounds were applied using a gravity-driven perfusion system and illumination was applied to the entire field of view using a Polychrome V monochromator (TILL Photonics) through a 20x objective (maximum 0.05 mW/mm^2 at 370 nm and 0.5 mW/mm^2 at 460 nm or 473 nm) or a DG4 (Sutter) through a 20x objective (maximum 0.06 mW/mm^2 at 370 nm and 0.6 mW/mm^2 at 445 nm). pClamp software was used for both data acquisition and control of illumination.
The selection criteria for electrophysiological experiments are that a cell (i) expresses the fluorescent protein transfection marker, and (ii) responds to agonist, indicating the presence of either receptor and GIRK or an LGIC. Cells were not excluded unless the recording was of poor quality (e.g., unstable baseline).
Data were analyzed using GraphPad Prism (GraphPad), Clampfit (Axon instruments), Origin (OriginLab), MATLAB, or ImageJ software. For dose-response curves, data were normalized to vehicle (0%) and DA (100%) and nonlinear regression analysis was performed using the sigmoidal dose-response function in GraphPad Prism. Statistical analyses were performed using GraphPad Prism. All values reported are mean ± S.E.M.
FIGS. 9A-9H. Functional properties of untethered P-D1ago. (A) Schematic representation of a D1R-mediated G protein-coupled inwardly rectifying potassium (GIRK) channel assay in HEK293T cells. Agonist-induced receptor activation results in the recruitment of a heterotrimeric G protein containing the chimeric Gα subunit (Gαis) followed by the release of Gβγ, which activates GIRK channels and enhances inward-current. […] (E) Schematic representation of a highly sensitive D1R-mediated cAMP accumulation assay in HEK293T cells. Agonist-induced D1R activation results in Gs/olfrecruitment followed by the binding of its Gα subunit to adenylate cyclase (AC), which enhances the conversion of ATP to cAMP. cAMP binds the bioluminescence resonance energy transfer 1 (BRET′)-based cAMP sensor CAMYEL^87, resulting in a conformational change in its Epac domain that increases the distance and decreases BRET^1 between the donor Renilla luciferase (Rluc) and the acceptor YFP. […] Optimization and characterization of the D1R MP

D1R and D5R = experiment: Open field test, bilateral dStr-infusion of SKF82958 in D1-Cre mice; format: in vivo
Procedure: FIGS. 21A-21K. […] (A) An infusion of SKF82958 directly to the dorsal striatum (dStr) activates D1R and D5R in various cell types of this brain area and could diffuse into other brain areas. (B) Time course of the effect of a bilateral dStr-infusion of SKF82958 (400 nL per hemisphere) on the locomotion of D1-Cre mice in an open field. (C) Average velocity in the last 10 minutes of the open field test. one-way ANOVA, F = 14.3, Bonferroni, ^∗∗p < 0.01, ^∗∗∗p < 0.001. n = 5 mice per condition. (D) Time to maximum locomotion with SKF82958 or MP-D1ago. unpaired two-sided t-test, ^∗∗∗∗p < 0.0001. n = 5 for SKF82958, n = 7 mice for MP-D1ago. (E) Example movement dynamics of a mouse treated with vehicle or 100 µg SKF82958. Shown for SKF82958-treated mice is the (F) average percent of the time in motion, (G) average initiations per second, (H) average movement bout duration, and (I) the average maximum movement bout velocity. […] Bonferroni, ^∗p < 0.05, ^∗∗p < 0.01. n = 5 mice. (J) Representative coronal brain slice from a mouse infused with SKF82958. grey bar = 1 mm. blue = DAPI staining. (K) Summary of cannula locations for individual mice.

CN1CCc2ccccc2Cc2[nH]c3ccccc3c2CC1 [LE300, reference compound]
photoactivation of D1R by P-D1ago tethered to the M in the presence of LE300 (D1R): 3.3 ± 3.3%

C=CCN1CCc2c(cc(O)c(O)c2Cl)C(c2ccccc2)C1 (centres unmarked) [SKF82958]
duration of the movement bouts (D1R and D5R): increased | movement initiation (D1R and D5R): increased | percentage of the time in motion (D1R and D5R): increased the percentage of the time that the mice were in motion | locomotion in an open field (D1R and D5R; 400 nL per hemisphere): enhanced locomotion
